Target: Growth hormone secretagogue receptor type 1 (Rattus norvegicus, UniProt O08725)
Experiment: In vitro growth hormone release was determined in rat pituitary cell assay
Assay type: functional, cell-based, Pituitary gland cell
Settings: not given; call rule not given here

Growth hormone secretagogue receptor type 1, sequence (O08725 whole entry): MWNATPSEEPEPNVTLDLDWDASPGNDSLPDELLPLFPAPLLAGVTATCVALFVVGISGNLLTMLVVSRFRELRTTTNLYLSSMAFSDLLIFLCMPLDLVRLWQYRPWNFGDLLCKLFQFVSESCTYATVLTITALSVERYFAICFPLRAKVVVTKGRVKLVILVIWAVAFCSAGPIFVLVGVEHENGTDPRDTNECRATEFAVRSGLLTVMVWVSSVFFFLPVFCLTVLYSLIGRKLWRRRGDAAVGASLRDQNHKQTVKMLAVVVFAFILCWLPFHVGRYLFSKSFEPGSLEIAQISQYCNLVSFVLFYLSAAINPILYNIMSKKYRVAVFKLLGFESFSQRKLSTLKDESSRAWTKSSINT

Row | SMILES | EC50
1 | CC(C)(N)C(=O)N[C@H](Cc1c[nH]c2ccccc12)C(=O)N1CCC2(CCCc3ccccc32)CC1 | 66 nM
2 | CC(C)(N)C(=O)N[C@H](Cc1c[nH]c2ccccc12)C(=O)N1CCC2(CC1)CC(O)c1ccccc1O2 (stereo partly drawn) | 16 nM
3 | CC(C)(N)C(=O)N[C@H](Cc1c[nH]c2ccccc12)C(=O)N1CCC2(CC1)Cc1ccccc1C2O (stereo partly drawn) | 19 nM
4 | CC(C)(N)C(=O)N[C@H](Cc1c[nH]c2ccccc12)C(=O)N1CCC2(CC1)Cc1ccccc1C2 | 37 nM
5 | CC(C)(N)CC(=O)N[C@@H]1CCc2ccccc2N(Cc2ccc(-c3ccccc3-c3nnn[nH]3)cc2)C1=O | 60 nM
6 | CC(C)(N)C(=O)N[C@H](Cc1c[nH]c2ccccc12)C(=O)N1CCCC2(CCc3ccccc32)C1 (stereo partly drawn) | 630 nM
7 | CC(C)(N)C(=O)N[C@H](Cc1c[nH]c2ccccc12)C(=O)N1CCC2(CCc3ccccc32)CC1 [L-162752] | 14 nM

Now from value to compound:

Row | EC50 | SMILES
8 | 25 nM | CC(C)(N)C(=O)N[C@H](Cc1c[nH]c2ccccc12)C(=O)N1CCC2(CCc3ccccc3O2)CC1
9 | 42 nM | CC(C)(N)C(=O)N[C@H](Cc1c[nH]c2ccccc12)C(=O)N1CCC2(CC1)Cc1ccccc1C2=O
10 | 37 nM | CC(C)(N)C(=O)N[C@H](Cc1c[nH]c2ccccc12)C(=O)N1CCC2(CC1)CC(=O)c1ccccc1O2
11 | 20 nM | CC(C)(N)C(=O)N[C@H](Cc1c[nH]c2ccccc12)C(=O)N1CCCC2(Cc3ccccc3C2=O)C1 (stereo partly drawn)
12 | 1.2 nM | CC(C)(N)C(=O)N[C@H](Cc1c[nH]c2ccccc12)C(=O)N1CCC[C@@]2(CC(=O)c3ccccc3O2)C1
13 | 2.9 nM | CC(C)(N)C(=O)N[C@H](Cc1c[nH]c2ccccc12)C(=O)N1CCCC2(CCc3ccccc3O2)C1 (stereo partly drawn)
14 | 57 nM | CC(C)(N)C(=O)N[C@H](Cc1c[nH]c2ccccc12)C(=O)N1CCC[C@]2(CC(=O)c3ccccc3O2)C1
15 | 1.2 nM | CC(C)(N)C(=O)N[C@H](Cc1c[nH]c2ccccc12)C(=O)N1CCCC2(CC(O)c3ccccc3O2)C1 (stereo partly drawn)
16 | 60 nM | CC(C)(N)C(=O)N[C@H](Cc1c[nH]c2ccccc12)C(=O)N1CCCC2(Cc3ccccc3C2)C1
17 | 1.8 nM | CC(C)(N)C(=O)N[C@H](Cc1c[nH]c2ccccc12)C(=O)N1CCCC2(CC(=O)c3ccccc3O2)C1 (stereo partly drawn)

Organism: Rattus norvegicus
Experiment: In vitro growth hormone release was determined in rat pituitary cell assay; NA means not active
Assay type: functional
Settings: pituitary gland cell

Row | SMILES | EC50
18 | CC(C)(N)C(=O)N[C@H](Cc1c[nH]c2ccccc12)C(=O)N1CCCC2(Cc3ccccc3C2O)C1 (stereo partly drawn) | Not Active
